Test results as given in patent publication US20140024527A1, “HERBICIDAL PYRAZINONES” (E I DU DE NEMOURS AND COMPANY, priority 2011, published 2014).

Columns and labels:
Assay in all cases: Test B postemergence
Format in all cases: in vivo
Conditions in all cases: scale 0 to 100
[1] = system: Surinam grass (Brachiaria decumbens)
How it was run: (§1)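 Plants at the 1- to 4-leaf stage (2 to 18 cm tall), grown in pots of peat/vermiculite medium, were sprayed postemergence with compound formulated in a non-phytotoxic solvent mixture containing surfactant. After 13 to 15 days in a greenhouse, injury was visually rated against untreated controls on a 0 (no effect) to 100 (complete control) scale.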

[2] = system: blackgrass (Alopecurus myosuroides)
How it was run: as §1

[3] = system: chickweed (Stellaria media)
How it was run: as §1

[4] = system: cocklebur (Xanthium strumarium)
How it was run: as §1

corn (Zea mays) = system: corn (Zea mays)
How it was run: as §1

[5] = system: deadnettle (Lamium amplexicaule)
How it was run: as §1

galium (Galium aparine) = system: galium (Galium aparine)
How it was run: as §1

[6] = system: giant foxtail (Setaria faberii)
How it was run: as §1

[7] = system: goosegrass (Eleusine indica)
How it was run: as §1

[8] = system: green foxtail (Setaria viridis)
How it was run: as §1

[9] = system: johnsongrass (Sorghum halepense)
How it was run: as §1

kochia (Kochia scoparia) = system: kochia (Kochia scoparia)
How it was run: as §1

[10] = system: lambsquarters (Chenopodium album)
How it was run: as §1

[11] = system: large crabgrass (Digitaria sanguinalis)
How it was run: as §1

[12] = system: pigweed (Amaranthus retroflexus)
How it was run: as §1

[13] = system: ragweed (Ambrosia elatior)
How it was run: as §1

soybean (Glycine max) = system: soybean (Glycine max)
How it was run: as §1

[14] = system: velvetleaf (Abutilon theophrasti)
How it was run: as §1

[15] = system: wheat (Triticum aestivum)
How it was run: as §1

[16] = system: windgrass (Apera spica-venti)
How it was run: as §1

[17] = system: yellow nutsedge (Cyperus esculentus)
How it was run: as §1

SMILES: COCCn1c(-c2cccc(F)c2)c(Cl)nc(C(=O)C2=C(O)CCCC2=O)c1=O [Compound 4, 5-chloro-6-(3-fluorophenyl)-3-[(2-hydroxy-6-oxo-1-cyclohexen-1-yl)carbonyl]-1-(2-methoxyethyl)-2(1H)pyrazinone]
- Plant response rating, Surinam Grass ([1]; 31 g ai/ha): 55
- Plant response rating, Surinam Grass ([1]; 62 g ai/ha): 60
- Plant response rating, Surinam Grass ([1]; 125 g ai/ha): 65
- Plant response rating, Surinam Grass ([1]; 250 g ai/ha): 70
- Plant response rating, Blackgrass ([2]; 31 g ai/ha): 5
- Plant response rating, Blackgrass ([2]; 62 g ai/ha): 5
- Plant response rating, Blackgrass ([2]; 125 g ai/ha): 5
- Plant response rating, Blackgrass ([2]; 250 g ai/ha): 10
- Plant response rating, Chickweed ([3]; 31 g ai/ha): 5
- Plant response rating, Chickweed ([3]; 62 g ai/ha): 10
- Plant response rating, Chickweed ([3]; 125 g ai/ha): 15
- Plant response rating, Chickweed ([3]; 250 g ai/ha): 45
- Plant response rating, Cocklebur ([4]; 31 g ai/ha): 5
- Plant response rating, Cocklebur ([4]; 62 g ai/ha): 25
- Plant response rating, Cocklebur ([4]; 125 g ai/ha): 65
- Plant response rating, Cocklebur ([4]; 250 g ai/ha): 85
- Plant response rating, Corn (corn (Zea mays); 31 g ai/ha): 0
- Plant response rating, Corn (corn (Zea mays); 62 g ai/ha): 20
- Plant response rating, Corn (corn (Zea mays); 125 g ai/ha): 35
- Plant response rating, Corn (corn (Zea mays); 250 g ai/ha): 55
- Plant response rating, Deadnettle ([5]; 31 g ai/ha): 15
- Plant response rating, Deadnettle ([5]; 62 g ai/ha): 15
- Plant response rating, Galium (galium (Galium aparine); 31 g ai/ha): 50
- Plant response rating, Galium (galium (Galium aparine); 62 g ai/ha): 50
- Plant response rating, Foxtail, Giant ([6]; 31 g ai/ha): 40
- Plant response rating, Foxtail, Giant ([6]; 62 g ai/ha): 60
- Plant response rating, Foxtail, Giant ([6]; 125 g ai/ha): 70
- Plant response rating, Foxtail, Giant ([6]; 250 g ai/ha): 75
- Plant response rating, Goosegrass ([7]; 31 g ai/ha): 5
- Plant response rating, Goosegrass ([7]; 62 g ai/ha): 45
- Plant response rating, Goosegrass ([7]; 125 g ai/ha): 50
- Plant response rating, Goosegrass ([7]; 250 g ai/ha): 65
- Plant response rating, Foxtail, Green ([8]; 31 g ai/ha): 35
- Plant response rating, Foxtail, Green ([8]; 62 g ai/ha): 35
- Plant response rating, Foxtail, Green ([8]; 125 g ai/ha): 35
- Plant response rating, Foxtail, Green ([8]; 250 g ai/ha): 70
- Plant response rating, Johnsongrass ([9]; 31 g ai/ha): 60
- Plant response rating, Johnsongrass ([9]; 62 g ai/ha): 60
- Plant response rating, Johnsongrass ([9]; 125 g ai/ha): 75
- Plant response rating, Johnsongrass ([9]; 250 g ai/ha): 85
- Plant response rating, Kochia (kochia (Kochia scoparia); 31 g ai/ha): 10
- Plant response rating, Kochia (kochia (Kochia scoparia); 62 g ai/ha): 45
- Plant response rating, Kochia (kochia (Kochia scoparia); 125 g ai/ha): 55
- Plant response rating, Kochia (kochia (Kochia scoparia); 250 g ai/ha): 90
- Plant response rating, Lambsquarters ([10]; 31 g ai/ha): 95
- Plant response rating, Lambsquarters ([10]; 62 g ai/ha): 98
- Plant response rating, Lambsquarters ([10]; 125 g ai/ha): 98
- Plant response rating, Lambsquarters ([10]; 250 g ai/ha): 100
- Plant response rating, Crabgrass, Large ([11]; 31 g ai/ha): 70
- Plant response rating, Crabgrass, Large ([11]; 62 g ai/ha): 75
- Plant response rating, Crabgrass, Large ([11]; 125 g ai/ha): 80
- Plant response rating, Crabgrass, Large ([11]; 250 g ai/ha): 85
- Plant response rating, Pigweed ([12]; 31 g ai/ha): 65
- Plant response rating, Pigweed ([12]; 62 g ai/ha): 80
- Plant response rating, Pigweed ([12]; 125 g ai/ha): 90
- Plant response rating, Pigweed ([12]; 250 g ai/ha): 98
- Plant response rating, Ragweed ([13]; 31 g ai/ha): 50
- Plant response rating, Ragweed ([13]; 62 g ai/ha): 65
- Plant response rating, Ragweed ([13]; 125 g ai/ha): 75
- Plant response rating, Ragweed ([13]; 250 g ai/ha): 90
- Plant response rating, Soybean (soybean (Glycine max); 31 g ai/ha): 55
- Plant response rating, Soybean (soybean (Glycine max); 62 g ai/ha): 60
- Plant response rating, Soybean (soybean (Glycine max); 125 g ai/ha): 75
- Plant response rating, Soybean (soybean (Glycine max); 250 g ai/ha): 75
- Plant response rating, Velvetleaf ([14]; 31 g ai/ha): 50
- Plant response rating, Velvetleaf ([14]; 62 g ai/ha): 50
- Plant response rating, Velvetleaf ([14]; 125 g ai/ha): 60
- Plant response rating, Velvetleaf ([14]; 250 g ai/ha): 75
- Plant response rating, Wheat ([15]; 31 g ai/ha): 5
- Plant response rating, Wheat ([15]; 62 g ai/ha): 20
- Plant response rating, Wheat ([15]; 125 g ai/ha): 30
- Plant response rating, Wheat ([15]; 250 g ai/ha): 35
- Plant response rating, Windgrass ([16]; 31 g ai/ha): 5
- Plant response rating, Windgrass ([16]; 62 g ai/ha): 30
- Plant response rating, Windgrass ([16]; 125 g ai/ha): 40
- Plant response rating, Windgrass ([16]; 250 g ai/ha): 65
- Plant response rating, Nutsedge, Yellow ([17]; 31 g ai/ha): 5
- Plant response rating, Nutsedge, Yellow ([17]; 62 g ai/ha): 20
- Plant response rating, Nutsedge, Yellow ([17]; 125 g ai/ha): 45
- Plant response rating, Nutsedge, Yellow ([17]; 250 g ai/ha): 65
